This is an account of results in ChEMBL document CHEMBL4325834, “De Novo Molecular Design of a Novel Octapeptide That Inhibits In Vivo Melanogenesis and Has Great Transdermal Ability” (J Med Chem, 2018).

Active and inactive are the calls of the source. The calls are words filed in the database; no cut-off is given here. Where a SMILES comes first, the peptide text is derived from it.

In one series the target is T1, Tyrosinase (Agaricus bisporus, UniProt O42713).
T1 sequence (O42713 whole entry): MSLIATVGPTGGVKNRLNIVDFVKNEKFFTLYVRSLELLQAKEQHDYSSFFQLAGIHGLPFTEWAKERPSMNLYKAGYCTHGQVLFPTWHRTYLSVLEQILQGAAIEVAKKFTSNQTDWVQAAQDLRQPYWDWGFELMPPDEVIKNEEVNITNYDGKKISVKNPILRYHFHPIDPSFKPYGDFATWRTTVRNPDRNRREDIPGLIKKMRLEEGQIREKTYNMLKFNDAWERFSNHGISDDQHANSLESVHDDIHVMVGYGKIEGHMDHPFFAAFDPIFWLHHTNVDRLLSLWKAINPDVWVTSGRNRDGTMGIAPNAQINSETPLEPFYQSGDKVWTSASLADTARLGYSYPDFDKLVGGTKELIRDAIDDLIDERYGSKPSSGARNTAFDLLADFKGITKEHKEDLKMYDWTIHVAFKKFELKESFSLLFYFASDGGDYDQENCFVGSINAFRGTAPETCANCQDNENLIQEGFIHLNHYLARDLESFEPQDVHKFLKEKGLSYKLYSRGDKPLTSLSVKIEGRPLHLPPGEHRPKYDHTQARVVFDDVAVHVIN
Put plainly: Inhibition of mushroom tyrosinase using L-dopa as substrate assessed as reduction in dopachrome production after 20 mins by spectrophotometry.

The nature of series [1]: Hemolytic activity against human erythrocytes assessed as amount of hemoglobin released from lysed cells up to 150 uM relative to control. To be noted: read-out: Activity. Format: ADME, cell-based, Erythrocyte.
For series [2], the target named is T2, Tyrosinase (Mus musculus) (UniProt P11344).
T2 sequence (whole entry): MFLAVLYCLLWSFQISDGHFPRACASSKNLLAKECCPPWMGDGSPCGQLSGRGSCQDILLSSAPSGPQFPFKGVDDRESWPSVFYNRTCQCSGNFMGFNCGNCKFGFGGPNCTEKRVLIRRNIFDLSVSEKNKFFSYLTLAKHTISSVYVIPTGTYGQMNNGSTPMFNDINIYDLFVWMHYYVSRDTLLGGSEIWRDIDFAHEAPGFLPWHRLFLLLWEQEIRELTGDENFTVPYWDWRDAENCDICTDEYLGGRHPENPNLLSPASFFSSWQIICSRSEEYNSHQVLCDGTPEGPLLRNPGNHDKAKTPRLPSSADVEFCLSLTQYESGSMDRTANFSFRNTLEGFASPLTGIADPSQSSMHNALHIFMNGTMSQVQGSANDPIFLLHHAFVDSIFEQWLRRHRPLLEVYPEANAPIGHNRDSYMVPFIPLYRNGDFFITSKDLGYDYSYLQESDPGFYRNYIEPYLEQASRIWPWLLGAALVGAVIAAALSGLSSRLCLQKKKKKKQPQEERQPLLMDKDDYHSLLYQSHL
Description: Inhibition of TYR activity in mouse B16 cells assessed as increase in whitening at 20 uM preincubated for 72 hrs followed L-dopa substrate addition and measured after 4 hrs by fluorescence microscopy. It counts as cell-based.

Series [3] concerns the target T3, Tyrosinase (Agaricus bisporus) (UniProt O42713).
T3 sequence (whole entry): T1 sequence (O42713 whole entry)
Put plainly: Inhibition of mushroom tyrosinase using L-dopa as substrate assessed as reduction in L-dopa oxidation at IC50 by spectrophotometry.

Series [4] is described as follows: Reducing power of the compound assessed as reducing Fe3+ power at 80 uM using K3Fe(CN)6 in pH 6.6 phosphate buffer relative to control.
Series [5] is described as follows: Antioxidant activity assessed as ABTS radical scavenging activity at 80 uM after 10 mins relative to control. Format: functional.
Series [6] concerns the target T2, Tyrosinase (Mus musculus). Put plainly: Inhibition of TYR activity in mouse B16 cells assessed as reduction in melanin levels at 20 uM after 24 hrs by spectrophotometric analysis relative to control. Format: cell-based.
The subject of series [7] is B16. Put plainly: Cytotoxicity against mouse B16 cells up to 150 uM by MTT assay relative to control. Format: cell-based. In general terms: Tetrazolium assays rely on reduction of a dye to a coloured formazan, in cell work by metabolically active cells.
A short description of series [8]: Antioxidant activity assessed as DPPH free radical scavenging activity at 80 uM after 30 mins relative to control. Format: functional.
Series [9] relates to B16. Description: Downregulation of TYR protein expression in mouse B16 cells after 72 hrs by Western blot analysis. It counts as functional, cell-based. In general terms: In western blotting, separated proteins are transferred to a membrane and probed.
Series [10] addresses T2, Tyrosinase (Mus musculus). Description: Inhibition of TYR activity in mouse B16 cells 20 uM using L-dopa as substrate after 72 hrs relative to control. It counts as cell-based.
In series [11] the target is T2, Tyrosinase (Mus musculus). Put plainly: Inhibition of TYR activity in mouse B16 cells assessed as melanin levels post exfoliation at 20 uM after 72 hrs by spectrophotometric analysis relative to control. Format: cell-based. On the set-up: scale not given: the % may be the effect or the level left.
In a further series the test system is HaCaT. Description: Cytotoxicity against human HaCaT cells up to 150 uM by MTT assay relative to control. Format: cell-based.
Series [12] has as its target T3, Tyrosinase (Agaricus bisporus). Description: Potency index, ratio of IC50 for arbutin to IC50 for test compound for inhibition of mushroom tyrosinase using L-dopa as substrate assessed as reduction in dopachrome production after 20 mins by spectrophotometry.
In series [13] the target is T2, Tyrosinase (Mus musculus). Description: Inhibition of TYR activity in mouse B16 cells assessed as effect on pallet after exfoliation at 20 uM preincubated for 72 hrs followed L-dopa substrate addition and measured after 4 hrs by fluorescence microscopy. It counts as cell-based.
Series [14] deals with B16. Description: Downregulation of MITF protein expression in mouse B16 cells after 72 hrs by Western blot analysis. Format: functional, cell-based.

For `CC(C)[C@H](NC(=O)[C@H](CO)NC(=O)[C@H](CCCNC(=N)N)NC(=O)[C@H](CS)NC(=O)[C@@H](NC(=O)[C@H](CCCNC(=N)N)NC(=O)[C@@H](N)Cc1ccccc1)[C@@H](C)O)C(=O)N[C@@H](CS)C(=O)O` (H-FRTCRSVC-OH), the IC50 – broadly, the concentration that inhibits the measured activity by half – at Tyrosinase came out at 73 µM. In addition, the hemolysis in series [1] came to 3%. Moreover, the inhibition result (in series [2]; in [3]; in series [6]; in the series on B16 [9]; with B16 [14]) was “Active” in each case. Further, the Activity in series [4] amounted to 0.25; in series [5], 84%; in the series with B16 [7], 3%; in series [8], 94%; in series [11] it was 63.5%; with HaCaT, 2%. Also, the inhibition – broadly, the percentage by which the read-out fell short of the control – in [10] is 16%. The Ratio IC50 in [12] turned out to be 10. Also, the result in series [13] was Active.
Consider `OC[C@H]1O[C@@H](Oc2ccc(O)cc2)[C@H](O)[C@@H](O)[C@@H]1O` [ARBUTIN], for which the hemolysis in series [1] was 27%. Besides, in series [2], the inhibition result was “Active”. The Activity in series [4] came out at 0.12; in series [5], 53%; with B16 [7], 29%; in [8] it was 22%; in series [11], 76.3%; with HaCaT it was 31%. Also, the inhibition entry in the series with B16 [9] and in the series on B16 [14] was “inactive” each time. In addition, the inhibition in series [10] came to 10.4%. The outcome in series [13] was Active.
